In US11274131B2, “IgM-mediated receptor clustering and cell modulation” (MAYO FOUNDATION FOR MEDICAL EDUCATION AND RESEARCH, priority 2007, dated 2022):
Entries after “also recorded” stand apart in the source; their conditions may differ.

Assays:
human DC = assay: Immunoblot of phosphorylation of signaling intermediates in human DC; assay type: cell-based
Method: FIGS. 2A to 2G are a series of pictures showing that a kinase activated pathway regulates antibody-induced antigen uptake by matured DC. Matured human monocyte-derived DC were treated with the MTAb B7-DC XAb for varying time periods and evaluated for the phosphorylation status of select signaling pathway intermediates by immunoprecipitation with DAP12 (MC457), Syk (4D10), and PLCγ1 (MC490) reactive antibodies followed by western blot analysis using the phosphotyrosine reactive antibody 4G10 as a probe (FIGS. 2A-2C). Samples of the cells blocked with indicated concentration of piceatannol (FIG. 2D) or with […] of piceatannol (FIG. 2E) were analyzed for phosphorylation of Syk (FIG. 2D) and PLCγ1 (FIG. 2E). To investigate the functional importance of these signaling intermediates in the regulation of antigen uptake by matured DC activated with B7-DC XAb, varying concentrations of pharmacologic inhibitors were used to block the activity of p72Syk (piceatannol) and PLCγ1 (U73122) (FIGS. 2F and 2G, respectively). Antigen uptake was assessed by pulsing cultures with FITC-conjugated ovalbumin and measuring intracellular fluorescence 16 hours later in CD11c positive cells by flow cytometry.
In experiments involving assessment of the phosphorylation status of various protein kinases using whole cell lysate, dendritic cells of mouse or human origin or Jurkat cells were stimulated at the indicated times with control antibody or B7-DC XAb, and were lysed on ice for 10 minutes in 1 ml buffer containing 20 mM Tris-HCl, 40 mM NaCl, 5 mM EDTA, 50 mM NaF, 30 mM Na4P2O7, 0.1% BSA, 1 mM Na3VO4, 1 mM PMSF, 5 μg/ml aprotinin, 10 μg/ml leupeptin, and 1% Triton X-100. Cellular debris was removed by centrifugation at 20,800×g for 5 minutes at 4° C. and the supernatant was used in SDS-PAGE analysis for phosphorylated tyrosine proteins. For immunoprecipitation, antibody against mouse Syk (4D10) or PLC yl (MC490) or DAP12 (MC457) at 10 μg per sample was bound to protein A-Sepharose beads at 4° C. for 2 hours under constant rotation. Supernatants from cell lysate after stimulation were incubated with antibody coupled beads for 2 hours at 4° C. with constant rotation. […] Tyrosine-phosphorylated proteins were detected using the anti-phosphotyrosine specific antibody, 4G10, followed by goat anti-mouse IgG coupled to Horse Radish Peroxidase (Santa Cruz Biotechnology) and the SuperSignal detection system (Pierce Biotechnology, Rockford, Ill.). […] The supernatants were resolved by SDS-PAGE, probed with anti-mouse TREM-2 antibody (237920) and detected by Goat-anti mouse antibody coupled to HRP, or probed with affinity purified anti-mouse CD40 (1C10) and detected by Goat-anti mouse antibody coupled to HRP.

B16 melanoma cells = conditions: mice injected intravenously with antibody directly or DCs pre-treated with antibody and tumor antigen; cited from earlier work
mouse DC = assay: Co-immunoprecipitation with class II IA^b from mouse DC; assay type: cell-based
Source text: In FIG. 5A, the distribution of class II (labeled with APC-conjugated antibody) and CD80/CD86 molecules (labeled with PE-conjugated antibodies) was visualized by FRET following treatment of human monocyte derived DC with B7-DC XAb (open histograms) or with isotype control antibody (filled histograms). For FIG. 5B, mouse bone marrow derived DC were labeled, treated, and analyzed as in FIG. 5A. FIG. 5C indicates the inability of the IA^b specific IgM antibody 25-9-3 (open dark histograms), B7-DC XAb (open light histograms), and isotype control antibody treated samples (filled histograms) to induce FRET (top left and middle panels). Binding of the class II specific IgM antibody to the mouse DC analyzed is shown (top right panel). FIG. 5D indicates the ability of B7-DC-specific IgG antibody (open histograms on left of each panel) or no IgG antibody (open histograms on right of each panel) to inhibit FRET induced by the MTAb B7-DC XAb. Absence of FRET induced by Isotype control antibody is shown in reference (filled histograms). For FIGS. 5E and 5F, immunoprecipitates of membrane proteins from B7-DC XAb or control antibody treated DC were isolated using biotin tagged IA^b-specific KH74 antibody. The precipitates were analyzed by Western blot using mouse-specific TREM-2 and CD40 antibodies as probes. […]

[1] = tested on: mouse bone marrow-derived DC; assay: IL-6 ELISA of DC supernatants; assay type: cell-based; conditions: 48 hours
Method: Six day mouse bone marrow-derived DC from wild type or IL-6 KO mice were stimulated with isotype control antibody sHIgM39 or B7-DC XAb. IL-6 levels in culture supernatants were assessed 48 hours later by ELISA.
DC of wild type origin or from CD40 deficient mice were stimulated with 10 μg/ml control antibody or B7-DC XAb for 48 hours. Supernatants from the different treatment groups were harvested and quantified for the amount of IL-6 by sandwich ELISA as per the manufacturer's protocol (eBioscience, San Diego, Calif.).

B7-DC XAb: human monoclonal IgM from a Waldenstrom's macroglobulinemia patient that binds and cross-links B7-DC on DC
phosphorylation of PLCγ1 (human DC; human DC): concomitant with the phosphorylation of PLCγ1
phosphorylation of cellular proteins (human DC; human DC treated with antibody): induced as early as one minute after treatment
phosphorylation of DAP12 (human DC; human DC, cross-linking B7-DC): rapidly phosphorylated
phosphorylation of Syk (human DC; human DC, immunoprecipitated Syk): revealed phosphorylation of the protein tyrosine kinase
protection against B16 melanoma challenge (B16 melanoma cells): protected against challenge by B16 melanoma cells
association of TREM-2 with class II IA^b by co-immunoprecipitation (mouse DC; lysates 5 minutes after treatment): co-immunoprecipitation of TREM-2 with the class II molecule IA^b
recruitment of CD40 to the cap, co-precipitation with class II (mouse DC; mouse DC): co-precipitation with class II molecules
IL-6 secretion ([1]; DC from CD40 KO mice): absence of NF-κB activation and IL-6 secretion; also recorded: do not secrete IL-6
IL-6 secretion ([1]; DC from wild type mice): producing IL-6
